Reference: publication PMC5520492, “Inhibition of DNA2 nuclease as a therapeutic strategy targeting replication stress in cancer cells” (Oncogenesis, 2017)

Tests used:
[1] = system: U2OS cells containing DR-GFP reporter; assay: DR-GFP gene conversion (HR) reporter assay; format: cell-based, human; details: 24-h treatment
Procedure: (§1) Figure 4 NSC-105808 inhibits HR repair and DSB end resection. (a) Analysis of HR efficiency with the DR-green fluorescent protein (GFP) assay. Representative images of flow cytometry analysis and bar graph showing percentage of GFP cells from at least three independent experiments. Each value represents the mean±s.d. (b, c) Analysis of RPA phosphorylation in U2OS cells treated with NSC-105808 (2 h, 0.3 μM) and/or camptothecin (CPT; 2 h, 1 μM). (b) Representative images of cells subjected to immunofluorescent staining of p-RPA and bar graph showing percentage of cells with positive p-RPA staining from three independent experiments. Each value represents the mean±s.d. (c) Western blot analysis of chromatin fraction with the indicated antibodies. (d) Analysis of colony formation by FANCD2 (+/+) and FANCD2 (−/−) cells treated with cisplatin and/or NSC-105808. Each value is relative to the untreated control group of each cell line. The graph represents the mean±s.e.m. from three independent experiments. *P<0.01.
The DR-green fluorescent protein, pCAGGS and pCBASce plasmids were kindly provided by Dr Maria Jasin (Memorial Sloan-Kettering Cancer Center, New York, NY, USA). […]
The GFP expressing plasmid (pEGFP-C1) was used for transfection efficiency control. […] Efficiency of HR and SSA was calculated by normalizing I-SceI-induced GFP expression with EGFP transfection-induced GFP expression. […]

[2] = system: FANCD2−/− cells; assay: Colony formation with cisplatin in FANCD2-deficient cells; format: cell-based; details: cisplatin 0.3125 µM, NSC-105808 […]
Procedure: as §1
DNA2 knockdown cells were seeded at low density; cells were then left for 2 weeks to allow colonies to form. Cells were stained with 2% methylene blue/50% ethanol, and colonies containing 50 or more cells were counted. […] Colonies were fixed, stained, and scored ten days after treatment.

[3] = system: MCF10AT1, MCF10-DCIS, MCF10CA1a versus MCF10A cells; assay: MTT proliferation, MCF10A progression series; format: cell-based, human; details: 48-h treatment
Procedure: Figure 5 Oncogene induction enhances sensitivity of cancer cells to NSC-105808. (a-e) Graphs showing proliferation of indicated cell lines in response to a 48-h treatment with the indicated concentrations of NSC-105808. Proliferation relative to cells treated with vehicle alone was determined by the 3-(4,5-dimethylthiazol-2-yl)-2,5-diphenyltetrazolium bromide (MTT) assay. Each value represents the mean±s.e.m. from three independent experiments. (a) Proliferation of control pancreatic epithelial cells DT-PD59 and transformed pancreatic cancer cells AsPC-1 and PANC-1. (b) Proliferation of normal breast epithelial cells MCF10A and breast cancer cells Hs578T and BT549. (c) Proliferation of MCF10A cells with or without H-Ras expression. H-Ras was induced with doxycycline (2 μg/ml). […]
Cell proliferation was measured by 3-(4,5-dimethylthiazol-2-yl)-2,5-diphenyltetrazolium bromide (Sigma) reduction (Supplementary Materials and Methods).
To determine the cell proliferation rate, 1000 cells/well were seeded in a 96-well plate in a total volume of 100 µl in triplicate in each experiment. […] Plates were read at 490 nm and 650 nm (background) in a
microplate reader (Molecular Devices). After the subtraction of background, cell viability was calculated as fold change relative to control cells.

NC1=C(Br)C(=O)c2ncccc2C1=O [NSC-105808, 6-amino-7-bromoquinoline-5,8-dione]
DSB repair by gene conversion [1]: significantly reduced
Cisplatin sensitivity of FANCD2−/− cells (colony formation) [2]: lessened the cisplatin sensitivity
Sensitivity of cell lines with oncogene activation compared with MCF10A control [3]: more sensitive
